Literature values as cited in patent US20220016054A1, “EPINEPHRINE PARENTERAL FORMULATIONS” (Somerset Therapeutics LLC, priority 2020, published 2022).

Columns and labels:
[1] = tested on: beta-adrenergic receptors
[2] = fraction of that of l-epinephrine

| Compound | beta-adrenergic activity [1] | pressor effect relative to l-epinephrine [2] |
| --- | --- | --- |
| CNCC(=O)c1ccc(O)c(O)c1 [adrenalone] | little if any beta-adrenergic activity | – |
| CNC[C@H](O)c1ccc(O)c(O)c1 [d-epinephrine] | – | about one-fifteenth |
